Measurements as given in paper PMC8092108, “Mycophenolate suppresses inflammation by inhibiting prostaglandin synthases: a study of molecular and experimental drug repurposing” (PeerJ, 2021).
Like-named read-outs stand apart in the source and are kept apart here.

Legend:
12-LOX = assay: LOX inhibitor screening kit; format: biochemical
Method: The inhibitory effects of the drugs MMF and MPA on COX-1 and COX-2 were measured using the COX inhibitor screening assay kit and LOX inhibitor screening kit. The assay was performed according to the manufacturer’s directions and previously described methods ([Chowdhury et al., 2008]; [Lee et al., 2004]). Briefly, the reaction buffer (Tris–HCl buffer, pH 8.0) containing 5 mM EDTA, 2 mM phenol, and 1 µM hematin was measured into test tubes. The test drugs were dissolved in dimethyl sulfoxide and added to the tubes to final concentrations of […]. COX-1 or COX-2 was added to the test tubes and preincubated for 10 min at 37 °C. Arachidonic acid was then added, and the tubes were incubated for 2 min at 37 °C. The enzyme immunoassay was used to measure the concentration of the product prostaglandin F2α (PGF2α). The estimated values were determined after comparison to the predetermined standard curve. The IC50 was determined after three different experiments. The selectivity index was calculated from Eq. (1): […]

[1] = test system: atopic dermatitis and vitiligo; settings: cited from earlier work

IC50 (12-LOX; printed as 5-LOX in abstract and b38, read-out: IC50 5-LOX): 4.47 µM | IC50 (12-LOX; read-out: IC50 12-LOX): 4.47 µM
Structure (SMILES): COc1c(C)c2c(c(O)c1C/C=C(\C)CCC(=O)OCCN1CCOCC1)C(=O)OC2 [Mycophenolate mofetil]
Treatment of atopic dermatitis ([1]; oral 1–2 g daily for 12 weeks, ref Grundmann-Kollmann et al., 2001, Neuber et al., 2000): highly effective | Tolerability of high topical concentration ([1]; topical 15% MMF, ref Handjani et al., 2017): well tolerated | Treatment of vitiligo ([1]; topical application of 15% MMF, ref Handjani et al., 2017): highly effective
